Results from patent US11801000B2, “Hormone electrochemical biosensor” (Trustees of Boston University, priority 2021, dated 2023).
Entries after “also recorded” stand apart in the source; their conditions may differ.

Legend:
KSDH1 [1] = assay: Amplex UltraRed assay (H2O2 detection by fluorescence); assay type: biochemical, Pimelobacter simplex; details: 500 μM final PRG, CRT; 4.56 μM KSDH1; normalized (analytes without enzyme subtracted)
Method: FIGS. 6A-6B are schematics and graphs detailing the Amplex® UltraRed Reagent assay in which fluorescence is analyte limited, not enzyme limited. FIG. 6A is a schematic showing the Amplex® UltraRed mechanism for oxidase enzymes. Hormone is oxidized into product and H2O2 with presence of […] and O2. Horseradish peroxidase (HRP) then oxidizes Amplex® UltraRed in the presence of H2O2 into resorufin, which is fluorescent.
In Vitro Enzyme Characterization: Amplex® UltraRed assays were performed per instruction of the manufacturer (Thermo Fisher Scientific, Cambridge, Mass.). Final concentrations of Amplex® UltraRed, 500 uM, and HRP, 1 U/mL, in a total volume of 20 μL were used. Hormone and KSDH1 and KSDH2 concentrations varied with experiment. All measurements of fluorescence were done in a 384 well flat bottom black polystyrene microplate (Corning Inc.™, Corning, N.Y.) and read in an Infinite M200 Pro™ (TECAN Group Ltd.™, Medford, Mass.) spectrophotometer at room temperature with the excitation set to 490 nm and emission at 585 nm. Readings were done over 1 hour with each well read every 30 seconds.
(§1) The FAD-binding (KSDH1) enzyme was used to develop and optimize a hormone electrochemical biosensor. […] KSDH1 was also assessed using a DCPIP Assay to test whether it is a dehydrogenase.

[2] = Cyclic voltammetry, electroactivity on DS110 carbon SPE; assay type: physicochemical
KSDH1 [3] = assay: 2,6-Dichlorophenolindophenol (DCPIP) dehydrogenase functional assay; assay type: biochemical, Pimelobacter simplex; details: for Binding affinity, kinetics derived from velocity by hormone concentration experiment: FIG. 9C-9D
Method: A 2,6-Dichlorophenolindophenol functional assay was used to test whether KSDH1 is a dehydrogenase (FIG. 9A).
as §1

Pimelobacter simplex = assay: RNA-Seq of Pimelobacter simplex in the presence of hormone; assay type: cell-based; details: P. simplex grown in the presence of progesterone
Method: FIG. 3 is a series of graphs showing that RNA-Seq identified the steroid degrading genome cluster in Pimelobacter simplex.
Strain RNA Extraction: Cells were grown in 5 mL M18 at a starting OD600 of 0.005 with 21.6 μM hormone in 14 mL polypropylene round-bottom tubes (Corning Inc.™, Corning, N.Y.) in singlet. The cells were incubated at 30° C. with continuous orbital shaking at 150 rpm until the end of lag-phase (3 hours) and mid-log phase (7.5 hours) from the start of inoculation. Controls were grown in the same conditions without hormone. […] RNA samples were subsequently quantified using Qubit RNA HS Assay Kit™ (Thermo Fisher Scientific Inc.™, Cambridge, Mass.) and analyzed using a RNA 6000 Pico Kit™ (Agilent Technologies Inc.™, Santa Clara, Calif.) in a 2100 Bioanalyzer™ (Agilent Technologies Inc.™, Santa Clara, Calif.). […]
RNA-Seq Library Preparation: After RNA samples have been quantified and analyzed they were DNase treated using TURBO™ DNase 2 U/μL (Thermo Fisher Scientific Inc™ Cambridge, Mass.) and cleaned using Agencourt RNAClean™ XP SPRI beads (Beckman Coulter, Inc.™, Brea, Calif.). […] Whole transcriptome RNA sequencing was performed by a NextSeq 500™ (Illumina Inc.™, San Diego, Calif.) at high output (400 M reads) with 75 bp paired end sequencing read length. The data was then analyzed in-house through a proprietary lab computational pipeline.

[4] = KSDH1 stability (storage, immobilizing polymer) on biosensor; assay type: physicochemical
Description: FIG. 27. KSDH1 precipitation in the presence of chitosan, an immobilizing polymer, is evident.
FIG. 30A-B. Glutaraldehyde immobilization decreases signal (FIG. 30A).

[5] = DS110, DMSO as solvent (FIG. 16A)
[6] = DS110, EtOH as solvent (FIG. 16B)

Row | Molecule | KSDH1 response (fluorescence signal) to analyte (KSDH1 [1]) | Electroactivity by cyclic voltammetry [2, 5] | Electroactivity by cyclic voltammetry [2, 6] | Binding affinity, kinetics derived from velocity by hormone concentration experiment (KSDH1 [3]) | Expression of sterol responsive enzymes KSDH1 and KSDH2 (SRGI cluster) (Pimelobacter simplex) | KSDH1 sensitivity in sterol screen (DCPIP reduction, absorbance at OD600 nm) (KSDH1 [3]; sterol screen, FIG. 9B) | Behaviour in the presence of chitosan, an immobilizing polymer ([4]; FIG. 27) | Current output after storage ([4]; storage at 4 C for 1 week, two electrode configuration, DS110, +0.4V)
1 | C[C@]12CCC(=O)C=C1CC[C@@H]1[C@@H]2[C@@H](O)C[C@@]2(C)[C@H]1CC[C@]2(O)C(=O)CO [Cortisol, hydrocortisone] | increase of fluorescence; also recorded: responsive | not electroactive | not electroactive | strong |  |  |  | 
2 | CC(=O)[C@H]1CC[C@H]2[C@@H]3CCC4=CC(=O)CC[C@]4(C)[C@H]3CC[C@]12C [Progesterone, progesterone] | increase of fluorescence; also recorded: responsive | not electroactive | not electroactive | strong | highly expressed | DCPIP was reduced; also recorded: high sensitivity |  | 
3 | 3-ketosteroid-Δ1-dehydrogenase enzyme 1 (protein, 6xHis tag) MDWAEEYDVLVAGSGAGGMAGTYTAAREGLSVCLVEAGDKFGGTTAYSGGGGAWFPANPVLLRAGTDDTIEDALEYYRAVVGDRTPADLQETYVRGGAGLVAYLEEDDHFSFESYPWPDYFGDAPKARRDGQRHIIPTPLPVPSAPELREVVRGPLDNDRLGTPQPDDLFIGGRALVARFLTALATYPHATLVRETALAELVVEDGVVVGAIVETDGVRRAIRARRGVLLAAGGFEANDELRQKYGVPGVARDTMGPPTNVGAAHQAAIAVGADTDLMGEAWWSPGLTHPDGRSAFALWFTGGIFVDGAGRRFVNESAPYDRLGRAVIDHLTEGGVTPRYWMVYDHKEGSIPPVRATNVSMVDEEQYVAAGLWHTADTLPELAALIGVPADALVATVARFNELVADGYDADFGRGGEAYDRFFSGGEPPLVSIDEGPFHAAAFGISDLGTKGGLRTDTSARVLTADGTPIGGLYAAGNTMAAPSGTTYPGGGNPIGTSMLFSHLAVRHMGTEDARGSHHHHHH |  |  |  |  |  |  | precipitation | no change in current output
